Structures can show the parent of a compound that is named as a salt.
Experiments:
[1] = Storage stability: total related substances by liquid chromatography before and after storage; format: physicochemical; settings: for total amount of related substances (produced impurities), at the start: before storage; for total amount of related substances (produced impurities), at the start / total amount of related substances (produced impurities), after 3 months: liquid chromatography, related substances measured to ≥0.03%; for total amount of related substances (produced impurities), after 3 months: tightly sealed glass vessel, relative humidity 75° C.
Experimental: The storage stability of the compound (I) crystal form A obtained in example 1 was compared with that of the free-form crystals obtained in comparative example 1.
The respective crystals were introduced into a glass vessel which was then tightly sealed and stored at 40° C., relative humidity […] for 3 months; the amount of related substances before and after storage was measured by liquid chromatography; the results are shown in Table 1. The values are the total amount of related substances, which are produced impurities, as measured to ≥0.03%.

[2] = Retention of water of crystallization on heated drying under reduced pressure; format: physicochemical; settings: 80° C.
Description: Inventive crystal form B of compound (I) is a hydrate crystal form, and can be obtained using a combination of solvents that includes water. Alcohols such as ethanol and 2-propanol are preferred as the solvent used in combination with water. For example, the crystal form can be obtained by dissolving compound (I) in a mixed solvent containing ethanol and water at a ratio of 1:1 (80×volume), concentrating and then drying. The drying can comprise natural drying, drying under reduced pressure, heated drying, or heated drying under reduced pressure.

CCc1nc2c(Cl)ccc(OCC(=O)O)c2c(OC(F)F)c1Cc1ccc(Cl)cc1 (as salt: salt) [Free-form crystals, [8-chloro-3-(4-chlorobenzyl)-4-difluoromethoxy-2-ethylquinolin-5-yloxy]acetic Acid]
melting point: 141 °C

CCc1nc2c(Cl)ccc(OCC(=O)O)c2c(OC(F)F)c1Cc1ccc(Cl)cc1.NCCCC[C@H](N)C(=O)O [Compound (I) crystal form A, [8-chloro-3-(4-chlorobenzyl)-4-difluoro-methoxy-2-ethylquinolin-5-yloxy]acetic Acid L-Lysine Salt in Crystal Form A]
storage stability compared with the free-form crystals ([1]; 40° C., relative humidity 75, 3 months): better storage stability than the free-form crystals | total amount of related substances (produced impurities), at the start [1]: 0.53% | total amount of related substances (produced impurities), after 3 months ([1]; 40° C.): 0.59%

CCc1nc2c(Cl)ccc(OCC(=O)O)c2c(OC(F)F)c1Cc1ccc(Cl)cc1 [Free-form crystals, [8-chloro-3-(4-chlorobenzyl)-4-difluoromethoxy-2-ethylquinolin-5-yloxy]acetic Acid, reference compound]
total amount of related substances (produced impurities), at the start [1]: 1.37% | total amount of related substances (produced impurities), after 3 months ([1]; 40° C.): 1.95%

CCc1nc2c(Cl)ccc(OCC(=O)O)c2c(OC(F)F)c1Cc1ccc(Cl)cc1.NCCCC[C@H](N)C(=O)O [crystal form B of compound (I), [8-chloro-3-(4-chlorobenzyl)-4-difluoro-methoxy-2-ethylquinolin-5-yloxy]acetic Acid L-Lysine Salt in Crystal Form B]
loss of water of crystallization [2]: no water of crystallization is lost even at 80 °C
